Series [1] deals with day 30 MEPs. Kind of series: EDU incorporation proliferation assay. In kind it is cell-based, human. The note with it: versus untreated cells. The source says:
In a subsequent experiment, […] (EDU) incorporation in day 30 MEPs was used to compare proliferation of FICZ-treated MEPS and control untreated MEPs, EDU is a labeling chemical that intercolates into the DNA of a cell and allows for the explicit tracking of proliferation.

Series [2] deals with AhR (CYP1B1 target gene expression). Kind of series: In vivo CYP1B1 target gene expression in liver and spleen (quantitative RT-PCR). Also on record: species or system mouse. The settings on record: after 3 weeks of FICZ. The procedure: (§1) RNA was extracted using the RNeasy kit (Qiagen) according to the manufacturer's instructions and DNase treated using the DNA-free kit (Ambion AM1906). Reverse transcription into cDNA was performed using the High Capacity cDNA Reverse Transcription Kit (Applied Biosystems 4368814). Quantitative (real time) PCR amplification of cDNA was performed using Taqman probes for AHR (Hs00169233 ml), CYP1B1 (Hs002382916 sl), HBA (Hs00361191 gl), HBB (Hs00758889 sl), HBG (Hs01629437 sl), vWF (Hs00169795 ml), PF4 (Hs00427220 gl), NF-E2 (Hs00232351 ml) and CD62P (Hs00927900 ml) and run on the Applied Biosystems StepOne machine. Relative gene expression was normalized to B-actin (Hs99999903 ml).
(§2) C57B16 mice were injected daily intraperitoneally with FICZ suspended in vegetable oil using a weekly dose escalation scheme (Week 1: 1 mg/kg; Week 2: 2 mg/kg; Week 3: 4 mg/kg). Blood cell counts were assayed by Hemavet quantification of peripheral blood bleeds, at all 3 time points (Day 7, 14, and 21). Following the 3 week time point, mice were sacrificed and livers and spleens harvested for quantitative RT-PCR analyses.
To determine if FICZ treatment or whole animals would affect RBC or platelet production, C57B16 mice were injected daily intraperitoneally with FICZ suspended in vegetable oil using a weekly dose escalation scheme (Week 1: 1 mg/kg; Week 2: 2 mg/kg; Week 3: 4 mg/kg). […]

Series [3] can be described thus: In vivo blood cell counts (Hemavet) in normal mice. Also on record: species or system mouse. The method, then: as §2
To determine if FICZ treatment or whole animals would affect RBC or platelet production, C57B16 mice were injected daily intraperitoneally with FICZ suspended in vegetable oil using a weekly dose escalation scheme (Week 1: 1 mg/kg; Week 2: 2 mg/kg; Week 3: 4 mg/kg). […] Following the 3 week time point, mice were sacrificed and livers and spleens harvested.

Series [4] relates to AhR (CYP1B1 target gene expression) in MEPs. Briefly: Quantitative RT-PCR of AhR target gene CYP1B1 in MEPs. In kind it is cell-based, human. The procedure: (§3) 6-formylindolo[3,2-b]carbazole (FICZ), an AHR small molecule agonist, and CH223191, an AHR competitive inhibitor were used for these assays. CH223191 was added to mesoderm cultures at Day 6 at 5 μM (lx) and 2.504 (0.5×). 0.2 μM FICZ was added to cultures at Day 7 and media was added daily. DMSO was used as a vehicle control.
as §1
To characterize AhR expression and functionality in both undifferentiated iPSCs and directly differentiated MEPs, AhR protein levels were determined via Western blot in these populations. […] To test this hypothesis, the ability of FICZ to induce a prototypic AhR-target gene, CYPIB1, in iPSCs or, as a positive control, MEPs was assessed by quantitative RT-PCR.

The subject of series [5] is iPSC-derived MEPs. Kind of series: Live versus dead cell FACS (propidium iodide vs. Hoechst) of MEPs. In kind it is cell-based, human. The method, then:
as §3
Roughly 10^5 cells were collected, spun, and re-suspended in 0.5% BSA in PBS. Samples were incubated for 30 min at ambient temperature with human antibodies including CD41a-FITC (BD 555466), CD235-PE (BD 555570), CD71-FITC (BD 555536), washed and spun at 3300 rpm for 7 min, and re-suspended in 0.5% BSA in PBS with 1 ug/ml Propidium Iodide. Samples were run on a BD FACScalibur using Cellquest Pro software and analyzed via FloJo 8.7. For ploidy analysis, cells were treated with 1.5% NP-40 (Boston Bioproducts P-872) and 62.5 ug/ml Propidium Iodide in PBS immediately before FACScalibur interrogation. For murine bone marrow, samples were first incubated for 5 min at ambient temperature with murine conjugated antibody CD16/32 (BD 553142) before a 30 min incubation with c-Kit-PE (BD 553355), CD41a-FITC (BD 553848), Ter119-PE (BD 553673). For cell viability assays, 2-3×10 ^5 cells were collected, re-suspended in 8.8 ug/ml Hoecsht 33342 in PBS supplemented with 5% FBS. Samples were then incubated in the dark at 37° C. for 15 min, washed, and re-suspended in 1 ug/ml Propidium Iodide in 5% FBS. Samples were run on an LSR-II machine with FACSDiva software and analyzed via FloJo 8.7.
In order to determine whether FICZ-mediated transactivation of the AhR receptor was responsible for the exponential expansion of iPSC-derived MEPs, the previously described Hoecsht/Propidium Iodide apoptosis assay was performed using the known AhR inhibitor CH223191. As previously shown in FIG. 3, fewer cells stained with propidium iodide after FICZ treatment (e.g., 15.5% vs. 8.09%) (FIG. 5E). […] The efficacy of the CH223191 was confirmed by its ability to block CY1^31B1 induction as assayed by qRT-PCR (FIG. 5F).

Where [6] appears, read: C57B16 mice, daily i.p. dose escalation.

`O=Cc1c2c(cc3c1=Nc1ccccc1-3)=Nc1ccccc1-2` [FICZ, 6-formylindolo[3,2-b]carbazole]: the “proliferation by EDU incorporation” value in series [1] was “far more proliferative than untreated cells”. In series [2], the “CYP1B1 target gene expression in liver” value is “robust upregulation” and the “CYP1B1 target gene expression in spleen” value was “robust upregulation”. In addition, in series [3] (setting [6]), the “red blood cell (RBC) counts” value is recorded as “None of the mice in the study showed significant variations” and the “white blood cell (WBC) counts” value is “None of the mice in the study showed significant variations”. Moreover, the platelet counts result in series [3] (C57B16 mice, daily i.p., 1, 2, 4 mg/kg weekly escalation, Day 7, 14 and 21, versus mock or vehicle) was “increased platelet counts”. Moreover, the platelet response entry in series [3] (one mouse immediately exposed to higher doses (4 mg/kg), no week 1 escalation) was “more immediate and prolific platelet response”. Moreover, in series [4] (Day 15 MEPs, with vs. without FICZ, normalized to β-actin), the CYP1B1 expression entry is given as “statistically significant increases”. For the same compound, in series [4] (MEP, normalized to GAPDH), the “responsiveness to AhR agonist (CYP1B1 RT-PCR)” value is recorded as “responsive”. Besides, the “cells stained with propidium iodide” value in series [5] (D13 MEPs, FICZ added at D7, untreated 15.5%) was found to be 8.09%. Also, the “population of live cells as delineated by FSC and SSC” value in series [5] (day 15 MEPs + FICZ) was determined as 32.6%. The “live cells PI- Hoechst+” value in series [5] (day 15 MEPs + FICZ, gated from FSC vs. SSC population) is given as 97.7%. Besides, in series [5] (day 30 MEPs, versus untreated control), the “cell death by propidium iodide staining and Hoechst dye exclusion” value is reported as “significantly less cell death”.

(Values after patent US12173320B2, “Production of red blood cells and platelets from stem cells” (BOSTON MEDICAL CENTER CORPORATION, priority 2012, dated 2024).)
